Test results taken from US8604044B2, “Quinazoline based EGFR inhibitors containing a zinc binding moiety” (Curis, Inc., priority 2006, dated 2013).
pIC50: −log10 of the molar value.

Key:
[1] = molecular target: T1, HER2 (Homo sapiens, UniProt P04626); experiment: Radioisotope assay for HER2; format: biochemical; details: read-out: HER2/ErB2 IC50 grading
T1 construct: human HER2 amino acids 679-1255; host or cells: baculovirus in Sf9 insect cells
Protocol: Protocol for Radioisotope Assay for HER2
10 nM HER2 and 0.1 mg/ml polyEY were placed in the reaction buffer and 2 mM MnCl2, 1 μM ATP and 1% DMSO final were added. The reaction mixture was incubated for 2 hours at room temperature.
MW=91.6 kDa. […] Enzyme is in 25 mM Tris-HCl, pH 8.0, 100 mM NaCl, 0.05% Tween-20, 50% glycerol, 10 mM reduced glutathione, and 3 mM DTT.

[2] = system: HDAC; experiment: HDAC fluorimetric assay (HDAC enzymatic activity, HeLa nuclear extract); format: biochemical; details: HeLa nuclear extract; read-out: HDAC IC50 grading
Protocol: HDAC inhibitors were screened using an HDAC fluorimetric assay kit (AK-500, Biomol, Plymouth Meeting, Pa.).
Each assay was setup as follows: Defrosted all kit components and kept on ice until use. […] Prepared dilutions of Trichostatin A (TSA, positive control) and tested compounds in assay buffer (5× of final concentration). Diluted Fluor de Lys™ Substrate in assay buffer to 100 uM (50 fold=2× final). Diluted Fluor de Lys™ developer concentrate 20-fold (e.g. 50 μl plus 950 μl Assay Buffer) in cold assay buffer. Second, diluted the 0.2 mM Trichostatin A 100-fold in the 1× Developer (e.g. 10 μl in 1 ml; final Trichostatin A concentration in the 1× Developer=2 μM; final concentration after addition to HDAC/Substrate reaction=1 μM). Added Assay buffer, diluted trichostatin A or test inhibitor to appropriate wells of the microtiter plate. Added diluted HeLa extract or other HDAC sample to all wells except for negative controls.

T1 sequence (P04626 679-1255): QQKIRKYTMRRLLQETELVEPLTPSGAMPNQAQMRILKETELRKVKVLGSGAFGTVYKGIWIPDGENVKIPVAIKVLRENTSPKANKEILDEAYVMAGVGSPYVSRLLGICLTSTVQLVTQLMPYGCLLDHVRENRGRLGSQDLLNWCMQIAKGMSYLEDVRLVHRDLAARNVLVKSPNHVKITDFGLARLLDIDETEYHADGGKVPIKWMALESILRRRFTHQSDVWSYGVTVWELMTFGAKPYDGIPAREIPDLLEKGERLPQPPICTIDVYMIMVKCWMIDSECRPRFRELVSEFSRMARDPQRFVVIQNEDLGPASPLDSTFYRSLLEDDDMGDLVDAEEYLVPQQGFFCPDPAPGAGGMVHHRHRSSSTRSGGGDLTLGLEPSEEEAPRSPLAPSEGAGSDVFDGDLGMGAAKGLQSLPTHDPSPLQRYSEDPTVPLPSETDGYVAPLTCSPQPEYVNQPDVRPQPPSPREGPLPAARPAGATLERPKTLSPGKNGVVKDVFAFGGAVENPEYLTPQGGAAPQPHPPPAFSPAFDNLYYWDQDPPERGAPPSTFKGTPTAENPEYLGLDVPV

Compound | pIC50 [1] | pIC50 [2]
C#Cc1cccc(Nc2ncnc3cc(OC)c(OCC(=O)NO)cc23)c1 [Compound 7, 2-(4-(3-ethynylphenylamino)-7-methoxyquinazolin-6-yloxy)-N-hydroxyacetamide] | > 7.00 | < 5.00
C#Cc1cc(Nc2ncnc3cc(OCCOC)c(OCCCCCCC(=O)NO)cc23)ccc1F [Compound 76] | 6.00 to 7.00 | > 7.00
COc1cc2ncnc(N[C@H](C)c3ccccc3)c2cc1OCCCCCCC(=O)NO [Compound 79, (R)—N-hydroxy-7-(7-methoxy-4-(1-phenylethylamino)quinazolin-6-yloxy)heptanamide] | 6.00 to 7.00 | > 7.00
COCCOc1cc2ncnc(Nc3ccc(F)c(Cl)c3)c2cc1NC(=O)CCCCCCC(=O)NO [Compound 70, N^1-(4-(3-chloro-4-fluorophenylamino)-7-(2-methoxyethoxy)quinazolin-6-yl)-N^8-hydroxyoctanediamide] | > 7.00 | 
C#Cc1cccc(Nc2ncnc3cc(OC)c(NC(=O)CCCCCCC(=O)NO)cc23)c1 [Compound 44, N^1-(4-(3-ethynylphenylamino)-7-methoxyquinazolin-6-yl)-N^8-hydroxyoctanediamide] | 6.00 to 7.00 | > 7.00
C#Cc1cccc(Nc2ncnc3cc(OC)c(OCCCCCC(=O)NO)cc23)c1 [Compound 11, 6-(4-(3-ethynylphenylamino)-7-methoxyquinazolin-6-yloxy)-N-hydroxyhexanamide] | 6.00 to 7.00 | > 7.00
COc1cc2ncnc(Nc3ccc(F)c(Cl)c3)c2cc1NC(=O)CCCCCCC(=O)NO [Compound 40, N^1-(4-(3-chloro-4-fluorophenylamino)-7-methoxyquinazolin-6-yl)-N^8-hydroxyoctanediamide] | 6.00 to 7.00 | > 7.00
COCCOc1cc2ncnc(Nc3ccc(F)c(Cl)c3)c2cc1OCCCCCCC(=O)NO [Compound 30, 7-(4-(3-Chloro-4-fluorophenylamino)-7-(2-methoxyethoxy)quinazolin-6-yloxy)-N-hydroxyheptanamide] | 6.00 to 7.00 | > 7.00
C#Cc1cc(Nc2ncnc3cc(OC)c(OCCCCCCC(=O)NO)cc23)ccc1F [Compound 75, 7-(4-(3-ethynyl-4-fluorophenylamino)-7-methoxyquinazolin-6-yloxy)-N-hydroxyheptanamide] | 6.00 to 7.00 | > 7.00
COc1cc2c(Nc3ccc(F)c(Cl)c3)ncnc2cc1OCCCCCCC(=O)NO [Compound 161, 7-(4-(3-chloro-4-fluorophenylamino)-6-methoxyquinazolin-7-yloxy)-N-hydroxyheptanamide] | 6.00 to 7.00 | > 7.00
O=C(CCCCCCOc1ccc2ncnc(Nc3ccc(F)c(Cl)c3)c2c1)NO [Compound 18, 7-(4-(3-chloro-4-fluorophenylamino)quinazolin-6-yloxy)-N-hydroxyheptanamide] | 6.00 to 7.00 | > 7.00
C#Cc1cccc(Nc2ncnc3cc(OC)c(NC(=O)CCCC(=O)NO)cc23)c1 [Compound 42, N^1-(4-(3-ethynylphenylamino)-7-methoxyquinazolin-6-yl)-N^5-hydroxyglutaramide] |  | 6.00 to 7.00
COc1cc2ncnc(NCc3ccccc3)c2cc1OCCCCCCC(=O)NO [Compound 85, 7-(4-(Benzylamino)-7-methoxyquinazolin-6-yloxy)-N-hydroxyheptanamide] | 6.00 to 7.00 | > 7.00
COc1cc2ncnc(Nc3ccc(F)c(Cl)c3)c2cc1OCC(=O)NO [Compound 1, 2-(4-(3-Chloro-4-fluorophenylamino)-7-methoxyquinazolin-6-yloxy)-N-hydroxyacetamide] |  | < 5.00
COc1cc2ncnc(Nc3ccc(F)c(Cl)c3)c2cc1OCCOc1ccc(/C=C/C(=O)NO)cc1 [Compound 66, (E)-3-(4-(2-(4-(3-chloro-4-fluorophenylamino)-7-methoxyquinazolin-6-yloxy)ethoxy)phenyl)-N-hydroxyacrylamide] |  | 6.00 to 7.00
